The values that follow come from patent publication US11839658B2, “Aminoglycoside derivatives and nano-assemblies thereof, including those with quorum sensing inhibitory function” (priority 2017, dated 2023).

A short description of series [1]: Dynamic light scattering (DLS): zeta-potential, mean diameter, PDI of nano-assemblies. It counts as physicochemical.
In series [2] the test system is Pyocyanin released from PA14 bacteria (wild type). As to the kind of experiment: Pyocyanin assay on Pseudomonas aeruginosa. Conditions: 18 μg/mL Farnesal or Farnesol, 16 h, n=9. It counts as cell-based. The protocol:
Pyocyanin assay was used to quantify the amount of Pyocyanin molecule released from PA14 bacteria (wild type) which were grown aerobically for 16 hours. The Pyocyanin assay was performed as follows:
A single colony of PA14 was removed from agar plates after 16 hours of growth at 37° C. and transferred into 25 mL Erlenmeyer flasks with 10 mL of PPGAS (proteose peptone glucose ammonium salt medium which is composed of (1 g/L NH4Cl, 1.5 g/L KCl, 19 g/L Tris-HCl, 10 g/L peptone, glucose 5 g/L and 0.1 g/L MgSO4·7H2O, the medium was adjusted to pH 7.4, and sterilized before use). Following 16 hours of aerobic growth with shaking at 200 rpm and 37° C., cultures were centrifuged at 7.450 g, washed twice with 10 mL of fresh PPGAS medium, and resuspended to a final volume of 5 mL solution. Cultures were then diluted to a final OD600 of 0.02 and distributed into 24 well-plates, 1.5 mL each well.
Compounds Farnesal and Farnesol were diluted in DMSO, then added to wells containing PA14 bacteria, in 1:100 dilutions with a final DMSO concentration of 1% (v/v), so that the final concentration of Farnesal was 18 μg/mL, and of Farnesol was 18 μg/mL. […]
All cultures were incubated for an additional 16 h under aerobic conditions as mentioned above. […] OD520 was measured in the aqueous phase. […]

For series [3], the system named is P. aeruginosa strain PA14 (wild type). Description: MIC assay against Pseudomonas aeruginosa. It counts as cell-based. Conditions: PA14, read-out: MIC-90 against PA14. How it is done:
The minimum inhibitory concentration (MIC) of the of the tobramycin containing nano-assemblies of example 2 against the P. aeruginosa strain PA14 (wild type) was tested and compared to known MIC values of tobramycin.

Series [4] has as its system 24 hours old PA14 biofilm. As to the kind of experiment: Minimum Biofilm Eradicating Concentration (MBEC) assay. The format is cell-based, Pseudomonas aeruginosa. Conditions: 24 h old PA14 biofilm treated 24 hours. How it is done: Minimum Biofilm Eradicating Concentration (MBEC) assay was used to determine the minimum concentration of active agents at which a 24 hours old PA14 biofilm is completely eradicated. The MBEC assay was performed as follows: […]
The 96 well-plates were then kept at 37° C. without shaking for 24 hours to allow the forming of biofilm. Afterwards, the planktonic bacteria were removed, and the 24 hours old biofilm was washed twice with PBS, then fed with fresh PPGAS medium, and ready for the assay. […]
All cultures were incubated for an additional 24 hours at 37° C. without shaking. […] All cultures were then measured OD650, and the biofilm is considered to be completely eradicated once the resulting OD650 is equal or lower than OD650 of PPGAS medium.

The test system of series [5] is E. coli. As to conditions: literature value; cited from earlier work.

≈ marks a conversion by molar mass, not a printed value.

Consider `CC(C)=CCCC(C)=CCCC(C)=CC=O` [Farnesal], for which the zeta-potential in series [1] was −33.8±0.5 mV. The “percentage inhibition of released Pyocyanin vs PA14 wt control” value in series [2] was determined as 5.85±3.10%.
With `CC(C)=CCCC(C)=CCCC(C)=CCO` [Farnesol], the “percentage inhibition of released Pyocyanin vs PA14 wt control” value in series [2] amounted to 12.29±7.35%.
As for `NC[C@H]1O[C@H](O[C@H]2[C@H](O)[C@@H](O[C@H]3O[C@H](CO)[C@@H](O)[C@H](N)[C@H]3O)[C@H](N)C[C@@H]2N)[C@H](N)C[C@@H]1O` [Tobramycin], the MIC90 in series [3] is 6.25 to 12.5 µg/mL (≈ 13.4 to 26.7 µM). Also, the “Tobramycin concentration needed for complete biofilm eradication (MBEC)” value in series [4] is at least 100 µg/mL. The “MIC-90 against E. coli (Dienstag and Neu)” value in series [5] was 6.25 µg/mL (≈ 13.4 µM).
